15 compounds from patent US20140179681A1, “METHODS AND COMPOSITIONS OF TARGETED DRUG DEVELOPMENT” (priority 2010, published 2014) can be followed below.

Structures can show the parent of a compound that is named as a salt. Where two headings read alike, the source gives them in different places.

In one test the test system is MDBK line. Briefly: MTT Cell Proliferation Assay, MDBK cells. In kind it is cell-based, bovine. The settings on record: for IC50: Bos taurus, MDBK. Summed up:
(§1)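 Viability was measured by mitochondrial MTT reduction after cells were exposed to compound for 3 days in reduced-serum medium. Inhibition was calculated per plate against 0.5% DMSO controls.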

For test [1], the system named is epithelial carcinoma A431 cell line. Briefly: MTT Cell Proliferation Assay, A431 cells. In kind it is cell-based. The following applies: for IC50: Homo sapiens; for MTT Assay IC50(A431/MDBK): ratio in parentheses: ratio MDBK IC50 / A431 IC50 (selectivity). In short, it runs like this:
as §1

The target of a further test is T1, EGFR (Homo sapiens, UniProt P00533).
T1 construct: host or cells: A431
T1 sequence (P00533 25-1210): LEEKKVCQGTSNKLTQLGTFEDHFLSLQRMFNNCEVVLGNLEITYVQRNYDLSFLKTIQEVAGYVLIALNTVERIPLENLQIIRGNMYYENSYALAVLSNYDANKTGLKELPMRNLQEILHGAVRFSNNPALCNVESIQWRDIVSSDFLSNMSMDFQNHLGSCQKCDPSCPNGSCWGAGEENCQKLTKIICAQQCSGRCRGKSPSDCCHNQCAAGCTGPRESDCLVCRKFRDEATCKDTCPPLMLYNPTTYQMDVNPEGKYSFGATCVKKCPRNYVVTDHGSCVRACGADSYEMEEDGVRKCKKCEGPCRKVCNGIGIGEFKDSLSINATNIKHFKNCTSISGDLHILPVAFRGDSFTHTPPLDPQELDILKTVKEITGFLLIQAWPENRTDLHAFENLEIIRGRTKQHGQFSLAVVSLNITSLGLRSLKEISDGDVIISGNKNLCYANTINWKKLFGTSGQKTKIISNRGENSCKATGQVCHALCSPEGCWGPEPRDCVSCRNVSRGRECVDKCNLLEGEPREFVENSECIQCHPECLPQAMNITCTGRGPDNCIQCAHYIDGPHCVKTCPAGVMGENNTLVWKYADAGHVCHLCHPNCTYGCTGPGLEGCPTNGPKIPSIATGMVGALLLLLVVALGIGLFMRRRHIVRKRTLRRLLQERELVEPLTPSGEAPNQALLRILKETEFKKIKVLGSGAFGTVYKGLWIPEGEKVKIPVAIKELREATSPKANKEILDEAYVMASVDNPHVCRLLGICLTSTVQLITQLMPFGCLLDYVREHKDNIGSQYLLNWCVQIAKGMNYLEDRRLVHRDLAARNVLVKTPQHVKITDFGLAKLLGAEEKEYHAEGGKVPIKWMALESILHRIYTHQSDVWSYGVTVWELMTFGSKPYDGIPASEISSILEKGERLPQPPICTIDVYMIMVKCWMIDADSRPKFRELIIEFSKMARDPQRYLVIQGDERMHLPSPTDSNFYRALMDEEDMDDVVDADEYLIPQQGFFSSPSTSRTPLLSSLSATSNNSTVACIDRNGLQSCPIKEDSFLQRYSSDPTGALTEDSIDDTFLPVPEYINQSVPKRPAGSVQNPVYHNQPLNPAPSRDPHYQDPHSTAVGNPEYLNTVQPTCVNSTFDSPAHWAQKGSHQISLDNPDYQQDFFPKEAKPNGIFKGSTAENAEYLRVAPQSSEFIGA
Briefly: EGFR in-cell Western (ICW) screening protocol (EGFR inhibition assay). Also on record: ICW 1 / ICW 2 / ICW Avg: unit not given here. In kind it is cell-based. The following applies: for ICW assay: Table 10; for ICW Avg / ICW 1 / ICW 2: ICW assay; for ICW Avg: average of runs 1 and 2; for ICW 1: run 1; for ICW 2: run 2. In short, it runs like this:
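Serum-starved A431 cells (2 h) were pretreated with compound for 4 h at 37° C, then stimulated with EGF (10 ng/ml final, or 6.6 or 12.5 ng/ml in some runs) for 10 min. After formaldehyde fixation, phospho-EGFR (Tyr1173, or Tyr1045 in some runs) and total EGFR were detected by in-cell Western immunostaining.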

[2] abbreviates: 72 h, Table 10, second of x/y(ratio): MDBK, three day treatment, unit not printed (doses in μM), read-out: MTT assay (second value).
Where [3] appears, read: A-431, 72 h, Table 10, first of x/y(ratio): A431, three day treatment, unit not printed (doses in μM), read-out: MTT assay (first value).
[4] abbreviates: % Inhibition of EGF dependent EGFR phosphorylation in A431 cells, compound 125 μM in assay.
The mark [5] stands for this setting: second value of 'a/b (c)', taken as MDBK cells, read-out: MTT Screen, second value of cell.
Where [6] appears, read: A-431, first value of 'a/b (c)', taken as A431 cells, read-out: MTT Screen, first value of cell.
[7] abbreviates: MDBK cells, second value of cell, read-out: MTT Assay IC50(A431/MDBK): MDBK.
The mark [8] stands for this setting: A-431, A431 cells, first value of cell, read-out: MTT Assay IC50(A431/MDBK): A431.

With `CCOc1ccccc1NC(=S)Nc1ccc(S(=O)(=O)Nc2c(C)cc(C)cc2C)cc1` [AD4-12465], the IC50 in the test with MDBK line (setting [2]) is 6.54 µM; in test [1] (setting [3]), 9.92 µM. The compound further returned an ICW assay on EGFR (setting [4]) of 31.3476.

For `COc1ccc(NS(=O)(=O)c2ccc(NC(=S)NC(=O)C(C)C)cc2)cc1` [AD4-11971], the figures for the IC50 (in the test with MDBK line (setting [5]); in test [1] (setting [6])) were 41.1 µM and 41.5 µM, respectively. Moreover, the “ICW Screen (ICW Inhibition)” value against EGFR came out at 44.908.

As to `CCOc1ccc(NS(=O)(=O)c2ccc(NC(=S)Nc3ccccc3)cc2)cc1` [AD4-11344], the IC50 was 15.3 µM in the test with MDBK line (setting [2]) and 15.1 µM in test [1] (setting [3]). At EGFR (setting [4]), this compound gave an ICW assay of 34.1727.

On to `Cc1cc(C)c2nc(Nc3nc(CSc4nnc(C)s4)cc(=O)[nH]3)nc(C)c2c1` [compound 11476], for which the IC50 in the test with MDBK line (setting [7]) came out at 13.3 µM. In test [1] (setting [8]), the IC50 came to 17.9 µM. Moreover, the “MTT Assay IC50(A431/MDBK): ratio in parentheses” value (“MTT Assay IC50(A431/MDBK): ratio” for short) in test [1] is recorded as 0.74. Besides, at EGFR, the “ICW Avg” value worked out at 33.91, the “ICW 1” value is 36.71 and the “ICW 2” value turned out to be 31.11.

As for `O=c1cc(CN2CCN(C(c3ccccc3)c3ccccc3)CC2)c2ccc(O)c(O)c2o1` [AD4-10633], the “MTT Screen (second value)” value in the test with MDBK line (Table 11, second of x/y(ratio): MDBK, unit not printed (doses in μM)) was “non- convergent”. The IC50 in test [1] (A-431, Table 11, first of x/y(ratio): A431, unit not printed (doses in μM), read-out: MTT Screen (first value)) amounted to 5.2 µM. The “MTT Follow-up (first value)” value in test [1] (Table 11, first of x/y(ratio): A431, unit not given) is recorded as “Not Convergent”. In addition, the “ICW Screen” value on EGFR (Table 11, % Inhibition of EGF dependent EGFR phosphorylation in A431 cells, compound 125 μM in assay) was 46.398.

Turning to `O=C(NC(=S)Nc1ccc(S(=O)(=O)Nc2ccccc2)cc1)c1ccco1` [AD4-10705], the IC50 stood at 25.2 µM in the test on MDBK line (setting [5]) and 23.1 µM in test [1] (setting [6]). Besides, the “ICW Screen (ICW Inhibition)” value on EGFR turned out to be 47.764.

On to `Cc1ccc2c(=O)nc(Nc3nc(C)cc(-c4ccccc4)n3)[nH]c2c1` [compound 11610], for which the IC50 with MDBK line (setting [7]) came to 17.4 µM. For the same compound, the IC50 in test [1] (setting [8]) stood at 4.98 µM. Besides, on EGFR, the “ICW Avg” value came out at 31.67, the “ICW 1” value was 22.50 and the “ICW 2” value was 40.84.

For the compound `CCc1nnc(NS(=O)(=O)c2ccc(NC(=S)NC(=O)/C=C/c3ccccc3)cc2)s1` [AD4-11367], the IC50 with MDBK line (setting [5]) worked out at 43.6 µM; in test [1] (setting [6]) it was 43.3 µM. Besides, the “ICW Screen (ICW Inhibition)” value against EGFR came to 46.872.

For the compound `CCCc1c(C)nc(Nc2nc(C)c3cc(C)ccc3n2)[nH]c1=O` [compound 12667], the IC50 in the test with MDBK line (setting [7]) came out at 19.6 µM. Also, in test [1] (setting [8]), the IC50 was 36.1 µM. In addition, in test [1], the “MTT Assay IC50(A431/MDBK): ratio” value came out at 0.54. On EGFR, the “ICW Avg” value came to 31.86, the “ICW 1” value came out at 29.45 and the “ICW 2” value is reported as 34.27.

Take `CCCCCc1c(C)nc(Nc2nc(C)c3ccc(C)cc3n2)[nH]c1=O` [11730 + TFA]: in the test on MDBK line (setting [7]), the IC50 was determined as 10.1 µM. In addition, in test [1] (setting [8]), the IC50 was 14.5 µM. Besides, in test [1], the “MTT Assay IC50(A431/MDBK): ratio” value is 0.69. In addition, on EGFR, the “ICW Avg” value was 38.91, the “ICW 1” value was determined as 47.15 and the “ICW 2” value amounted to 30.67.

On to `O=S(=O)(Nc1ccc(Cl)cc1)c1ccc(NC(=S)Nc2cccc(Cl)c2)cc1` [AD4-12494], for which the IC50 in the test on MDBK line (setting [2]) amounted to 5.71 µM; in test [1] (setting [3]), 5.64 µM. At EGFR (setting [4]), this compound registered an ICW assay of 112.965.

In the case of `COc1cccc2c(C)nc(Nc3nc(C(F)(F)F)cc(=O)[nH]3)nc12` [compound 11758], the IC50 in the test with MDBK line (setting [7]) was 576 µM. Also, the IC50 in test [1] (setting [8]) is 53.8 µM. Further, at EGFR, the “ICW Avg” value came to 47.78, the “ICW 1” value is listed as 53.63 and the “ICW 2” value is reported as 41.93.

As to `COc1ccc(-c2cc(=O)[nH]c(Nc3nc(C)c4ccccc4n3)n2)cc1OC` [11471 + TFA], the IC50 with MDBK line (setting [7]) is 44.1 µM. In test [1] (setting [8]), the IC50 was found to be 36.9 µM. For the same compound, the “MTT Assay IC50(A431/MDBK): ratio” value in test [1] was found to be 1.20. For the same compound, on EGFR, the “ICW Avg” value was determined as 39.92, the “ICW 1” value was 37.43 and the “ICW 2” value amounted to 42.40.

`CC1CCc2cc(F)ccc2N1S(=O)(=O)c1ccc(NC(=S)Nc2ccc(F)cc2)cc1` (centres unmarked) [AD4-12850]: the IC50 with MDBK line (setting [2]) was determined as 35.8 µM; in test [1] (setting [3]), 31.8 µM. In addition, at EGFR (setting [4]), the ICW assay is recorded as 42.2628.

For `CCc1ccc(NC(=S)Nc2ccc(S(=O)(=O)Nc3cc(Cl)cc(Cl)c3)cc2)cc1` [AD4-12436], the IC50 was 5.53 µM with MDBK line (setting [2]) and 5.47 µM in test [1] (setting [3]). The compound also displayed an ICW assay against EGFR (setting [4]) of 108.826.
